According to PMC12472391, “Borylated Five-Membered Ring Iminosugars: Synthesis, Spectroscopic Analysis, and Biological Evaluation for Glycosidase Inhibition and Anticancer Properties for Application in Boron Neutron Capture Therapy (BNCT)—Part 1” (Pharmaceuticals, 2025):

Key:
[1] = molecular target: α-D-glucosidase (rice) (Oryza sativa subsp. japonica, UniProt Q653V7); test: Glycosidase inhibition, Table 6 (Laboratory 1); assay type: biochemical
[2] = molecular target: T1, α-D-glucosidase (yeast) (Saccharomyces cerevisiae, UniProt P53341); test: Glycosidase inhibition, Table 7; assay type: biochemical; conditions: 1 mg/mL aqueous solution added, 27 °C, run in water; for inhibition at 1000 µg/mL (stock): read-out: α-D-Glucosidase Yeast, percentage inhibition
T1 construct: purchased Sigma
Experimental: (§1) All enzymes and para-nitrophenyl substrates were purchased from Sigma. Enzymes were assayed at 27 °C in citric acid (0.1M)/disodium hydrogen phosphate (0.2 M) buffers at the optimum pH for the enzyme. The incubation mixture consisted of […] enzyme solution, […] of 1 mg/mL aqueous solution of extract, and […] of the appropriate 5 mM para-nitrophenyl substrate made up in buffer at the optimum pH for the enzyme. The reactions were stopped by the addition of […] 0.4 M glycine (pH 10.4) during the exponential phase of the reaction, which had been determined at the beginning using uninhibited assays in which water replaced the inhibitor. Final absorbances were read at 405 nm using a Versamax microplate reader (Molecular Devices). Assays were carried out in triplicate, and the values given are the means of the three replicates per assay. All reactions run in water.

[3] = system: β-D-glucosidase (almond); test: Glycosidase inhibition, Table 7; assay type: biochemical; conditions: 1 mg/mL aqueous solution added, 27 °C, run in water
Experimental: as §1

[4] = system: β-D-glucuronidase (bovine liver); test: Glycosidase inhibition, Table 7; assay type: biochemical; conditions: 1 mg/mL aqueous solution added, 27 °C, run in water
Experimental: as §1

[5] = Appearance: 1 mL of water added to 1 mg of solid, and mixed; assay type: physicochemical
[6] = system: A2780 ovarian carcinoma cells; test: Cancer screening, MTT growth inhibition; assay type: cell-based; conditions: 72-h exposure; for inhibition at 25 µM: Homo sapiens, A2780, 25 µM, read-out: A2780 Ovarian Carcinoma, Percentage (%) Cell Growth Inhibition in response to 25 µM of Drug
Experimental: (§2) Two assays were run: the dose screen to ascertain cell growth inhibition in response to 25 µM of drug (on a blue background) and the dose response (GI50) (on a green background). For a discussion of BNCT as a radiotherapeutic modality, a rationalisation is provided here.
(§3) All test agents were prepared as stock solutions (20 mM) in dimethyl sulfoxide (DMSO) and stored at −20 °C. Cell lines used in the study included HT29, (colorectal carcinoma); U87, SJ-G2, (glioblastoma); MCF-7, (breast carcinoma); A2780 (ovarian carcinoma); H460 (lung carcinoma); A431 (skin carcinoma); Du145 (prostate carcinoma); BE2-C (neuroblastoma) and MiaPaCa-2 (pancreatic carcinoma); together with the one non-tumour derived normal breast cell line (MCF10A). All cell lines were incubated in a humidified atmosphere 5% CO2 at 37 °C. The cancer cell lines were maintained in Dulbecco’s modified Eagle’s medium (DMEM; Sigma, Australia) supplemented with foetal bovine serum (10%), sodium pyruvate (10 mM), penicillin (100 IUmL^−1), streptomycin (100 µg mL^−1), and L-glutamine (2 mM).
(§4) Growth inhibition was determined by plating cells in duplicate in medium (100 µL) at a density of 2500–4000 cells per well in 96-well plates. On day 0 (24 h after plating), when the cells are in logarithmic growth, medium (100 µL) with or without the test agent was added to each well. After a 72-h drug exposure, growth inhibitory effects were evaluated using the MTT (3-(4,5-dimethyltiazol-2-yl)-2,5-diphenyltetrazolium bromide) assay and absorbance read at 540 nm. The percentage growth inhibition was calculated at a fixed concentration of 25 µM, based on the difference between the optical density values on day 0 and those at the end of drug exposure. Each data point is the mean ± the standard error of the mean (SEM) calculated from three replicates, which were performed on separate occasions and separate cell line passages.

[7] = system: A431 skin carcinoma cells; test: Cancer screening, MTT growth inhibition; assay type: cell-based; conditions: 72-h exposure; for inhibition at 25 µM: Homo sapiens, A-431, 25 µM, read-out: A431 Skin Carcinoma, Percentage (%) Cell Growth Inhibition in response to 25 µM of Drug
Experimental: as §2, §3, §4

[8] = system: BE2-C neuroblastoma cells; test: Cancer screening, MTT growth inhibition; assay type: cell-based; conditions: 72-h exposure; for inhibition at 25 µM: Homo sapiens, BE(2)-C, read-out: BE2-C Neuroblastoma, Percentage (%) Cell Growth Inhibition in response to 25 µM of Drug
Experimental: as §2, §3, §4

[9] = system: Du145 prostate carcinoma cells; test: Cancer screening, MTT growth inhibition; assay type: cell-based; conditions: for inhibition at 25 µM: Homo sapiens, DU-145, 72-h exposure, read-out: Du145 Prostate Carcinoma, Percentage (%) Cell Growth Inhibition in response to 25 µM of Drug
Experimental: as §2, §3, §4

[10] = system: H460 lung carcinoma cells; test: Cancer screening, MTT growth inhibition; assay type: cell-based; conditions: 72-h exposure; for inhibition at 25 µM: Homo sapiens, NCI-H460, 25 µM, read-out: H460 Lung Carcinoma, Percentage (%) Cell Growth Inhibition in response to 25 µM of Drug
Experimental: as §2, §3, §4

[11] = system: HT29 colon carcinoma cells; test: Cancer screening, MTT growth inhibition; assay type: cell-based; conditions: 72-h exposure; for inhibition at 25 µM: Homo sapiens, HT-29, 25 µM, read-out: HT29 Colon Carcinoma, Percentage (%) Cell Growth Inhibition in response to 25 µM of Drug
Experimental: as §2, §3, §4

[12] = system: MCF-7 breast carcinoma cells; test: Cancer screening, MTT growth inhibition; assay type: cell-based; conditions: for inhibition at 25 µM: Homo sapiens, MCF7, 72-h exposure, read-out: MCF-7 Breast Carcinoma, Percentage (%) Cell Growth Inhibition in response to 25 µM of Drug
Experimental: as §2, §3, §4

[13] = system: MIA-Pa-Ca2 pancreatic carcinoma cells; test: Cancer screening, MTT growth inhibition; assay type: cell-based; conditions: 72-h exposure; for inhibition at 25 µM: Homo sapiens, MIA PaCa-2, 25 µM, read-out: MIA-Pa-Ca2 Pancreatic Carcinoma, Percentage (%) Cell Growth Inhibition in response to 25 µM of Drug
Experimental: as §2, §3, §4

[14] = system: SJ-G2 glioblastoma cells; test: Cancer screening, MTT growth inhibition; assay type: cell-based; conditions: for inhibition at 25 µM: SJ-G2, 72-h exposure, read-out: SJ-G2 Glioblastoma, Percentage (%) Cell Growth Inhibition in response to 25 µM of Drug
Experimental: as §2, §3, §4

[15] = system: U87 glioblastoma cells; test: Cancer screening, MTT growth inhibition; assay type: cell-based; conditions: 72-h exposure; for inhibition at 25 µM: read-out: U87 Glioblastoma, Percentage (%) Cell Growth Inhibition in response to 25 µM of Drug
Experimental: as §2, §3, §4

[16] = system: MCF10A normal breast cells; test: Cancer screening, MTT growth inhibition; assay type: cell-based; conditions: 25 µM, 72-h exposure; for inhibition at 25 µM: Homo sapiens, MCF-10A, read-out: MCF10A Breast (Normal), Percentage (%) Cell Growth Inhibition in response to 25 µM of Drug
Experimental: as §2, §3
The non-cancer MCF10A cell line was maintained in DMEM/F12 (1:1) cell culture media, 5% heat inactivated horse serum, supplemented with penicillin (50 IUmL^−1), streptomycin (50 µg mL^−1), HEPES (20 mM), L-glutamine (2 mM), epidermal growth factor (20 ng mL^−1), hydrocortisone (500 ng mL^−1), cholera toxin (100 ng mL^−1), and insulin (10 mg mL^−1).
as §4

T1 sequence (P53341 whole entry): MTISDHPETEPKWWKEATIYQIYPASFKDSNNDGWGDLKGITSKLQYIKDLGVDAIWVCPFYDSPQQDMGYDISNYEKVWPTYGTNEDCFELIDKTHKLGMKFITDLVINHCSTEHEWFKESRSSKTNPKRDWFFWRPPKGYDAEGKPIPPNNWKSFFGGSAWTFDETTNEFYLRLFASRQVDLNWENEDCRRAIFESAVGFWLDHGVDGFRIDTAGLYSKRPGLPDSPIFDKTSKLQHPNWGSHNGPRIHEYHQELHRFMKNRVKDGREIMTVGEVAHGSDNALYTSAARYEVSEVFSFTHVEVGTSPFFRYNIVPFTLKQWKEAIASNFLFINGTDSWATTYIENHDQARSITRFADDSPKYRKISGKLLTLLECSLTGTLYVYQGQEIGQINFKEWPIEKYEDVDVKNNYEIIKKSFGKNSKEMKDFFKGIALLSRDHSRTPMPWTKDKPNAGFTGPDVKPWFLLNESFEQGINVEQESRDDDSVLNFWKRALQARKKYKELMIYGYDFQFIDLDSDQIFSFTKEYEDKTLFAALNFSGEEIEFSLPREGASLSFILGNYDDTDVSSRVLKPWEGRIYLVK
Chain of α-D-glucosidase (rice) (Q653V7 34-885): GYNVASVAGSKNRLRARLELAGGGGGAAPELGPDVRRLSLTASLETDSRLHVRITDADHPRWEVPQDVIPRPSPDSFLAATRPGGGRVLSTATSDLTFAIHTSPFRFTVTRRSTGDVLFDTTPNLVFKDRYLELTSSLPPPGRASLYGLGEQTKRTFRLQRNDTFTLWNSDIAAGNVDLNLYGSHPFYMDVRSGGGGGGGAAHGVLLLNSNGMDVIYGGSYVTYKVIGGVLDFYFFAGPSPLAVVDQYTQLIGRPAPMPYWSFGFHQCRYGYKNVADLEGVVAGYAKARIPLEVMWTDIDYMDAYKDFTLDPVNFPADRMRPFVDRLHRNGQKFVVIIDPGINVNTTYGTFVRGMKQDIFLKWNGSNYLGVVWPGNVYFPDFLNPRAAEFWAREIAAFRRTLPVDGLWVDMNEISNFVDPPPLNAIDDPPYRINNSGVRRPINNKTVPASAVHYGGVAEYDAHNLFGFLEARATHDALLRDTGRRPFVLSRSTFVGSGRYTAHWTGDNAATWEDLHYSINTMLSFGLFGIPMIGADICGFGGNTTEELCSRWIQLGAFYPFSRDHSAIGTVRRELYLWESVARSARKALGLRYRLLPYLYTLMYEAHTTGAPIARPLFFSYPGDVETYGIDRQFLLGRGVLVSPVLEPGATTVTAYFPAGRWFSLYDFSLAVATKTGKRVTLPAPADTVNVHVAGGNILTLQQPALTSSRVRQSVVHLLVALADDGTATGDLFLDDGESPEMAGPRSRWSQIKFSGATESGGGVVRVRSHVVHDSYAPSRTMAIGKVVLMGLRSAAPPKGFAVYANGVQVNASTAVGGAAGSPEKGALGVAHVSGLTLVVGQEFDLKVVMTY

Compound | β-D-Glucosidase Almond, percentage inhibition [3] [%] | β-D-Glucuronidase Bovine Liver, percentage inhibition [4] [%] | Appearance [5] | inhibition at 1000 µg/mL (stock) [2] [%] | inhibition at 25 µM [6] [%] | inhibition at 25 µM [7] [%] | inhibition at 25 µM [8] [%] | inhibition at 25 µM [9] [%] | inhibition at 25 µM [10] [%] | inhibition at 25 µM [11] [%] | inhibition at 25 µM [12] [%] | inhibition at 25 µM [13] [%] | inhibition at 25 µM [14] [%] | inhibition at 25 µM [15] [%] | inhibition at 25 µM [16] [%] | also measured
borocaptate sodium [BSH, reference compound] | 47.3 | 31.6 | In solution | – | – | – | – | – | – | – | – | – | – | – | – | α-D-Glucosidase Rice, inhibition % at 1000 μM ([1]; 1000 μM): ^a NI ^b (0%); α-D-Glucosidase Yeast, percentage inhibition [2]: 59%; A2780 Ovarian Carcinoma, Percentage (%) Cell Growth Inhibition in response to 25 µM of Drug ([6]; 25 µM): * 2 ± 5%; A431 Skin Carcinoma, Percentage (%) Cell Growth Inhibition in response to 25 µM of Drug ([7]; 25 µM): * <0%; BE2-C Neuroblastoma, Percentage (%) Cell Growth Inhibition in response to 25 µM of Drug [8]: * 10 ± 6%; Du145 Prostate Carcinoma, Percentage (%) Cell Growth Inhibition in response to 25 µM of Drug ([9]; 72-h exposure): * 0 ± 8%; H460 Lung Carcinoma, Percentage (%) Cell Growth Inhibition in response to 25 µM of Drug ([10]; 25 µM): * 8 ± 2%; HT29 Colon Carcinoma, Percentage (%) Cell Growth Inhibition in response to 25 µM of Drug ([11]; 25 µM): * 3 ± 2%; MCF-7 Breast Carcinoma, Percentage (%) Cell Growth Inhibition in response to 25 µM of Drug ([12]; 72-h exposure): * 15 ± 3%; MIA-Pa-Ca2 Pancreatic Carcinoma, Percentage (%) Cell Growth Inhibition in response to 25 µM of Drug ([13]; 25 µM): * 2 ± 6%; SJ-G2 Glioblastoma, Percentage (%) Cell Growth Inhibition in response to 25 µM of Drug ([14]; 72-h exposure): * 3 ± 8%; U87 Glioblastoma, Percentage (%) Cell Growth Inhibition in response to 25 µM of Drug [15]: * <0%; MCF10A Breast (Normal), Percentage (%) Cell Growth Inhibition in response to 25 µM of Drug [16]: * 8 ± 3%
CC1(C)O[C@H]2O[C@H]3[C@@H]([C@H]2O1)N(Cc1ccccc1)C[C@H]3O [Compound 3, N-Benzyl-3,6-dideoxy-3,6-imino-1,2-O-isopropylidene-α-D-gulofuranose] | −8.3 | −0.2 | In solution | -89 | 11 | 7 | 10 | < 0 | 9 | 10 | 7 | 7 | 10 | 5 | 9 | inhibition at 100 µM [1]: 0%
OC1O[C@@H]2[C@H]([C@H]1O)N(Cc1ccccc1)C[C@H]2O (stereo partly drawn) [Compound 4, N-Benzyl-3,6-dideoxy-3,6-imino-D-gulofuranose] | 58.1 | −4.3 | In solution | -79 | 15 | 11 | 12 | 0 | 8 | 11 | 9 | 8 | 12 | 8 | 14 | inhibition at 1000 µM [1]: 1.3%
